Laboratory results taken from patent US20090197811A1, “ORALLY ADMINISTERED PEPTIDES TO IMPROVE OR PREVENT HEPATIC FIBROSIS” (University of Southern California, priority 2007, published 2009).
Several values for one entry are separate records, joined by “and”; a condition that tells them apart may be missing. Identical values can stand only once. Entries after “also recorded” stand apart in the source; their conditions may differ.

Experiments:
Assay type in all cases: in vivo, mouse
C57Bl/6J mice [1] = assay: Western diet model: liver histology, assessment of steatosis and inflammation; details: for Fatty Change Degree of fat / Fatty Change Type (predominant type) / Inflammatory Clusters: individual mice
Protocol: (§1) Studies were performed in male C5713L/6J mice (Jackson Laboratories, Bar Harbor Me.). Six groups were studied (n=3-5, see FIG. 1) with 4 mice per group at the outset, except for group 2, which was started with n=5; 1 mouse died in group 1. Groups 1, 2, and 3 received the Western diet for 9.5 months; during the last 2.5 months of the 9.5 months, group 2 received SR141716 10 mg/kg/day i.g., and group 3 received D-4F, 125 μg/mouse/day, in the drinking water. Groups 4, 5, and 6 received the Western diet for 7 months followed by standard chow for 2.5 months; during the 2.5 months on standard chow, group 5 received SR141716 and group 6 received D-4F as described for groups 2 and 3, respectively. Additional control groups were studied: 6-month old C57Bl/6J mice as age-matched controls (n=5) and C57Bl/6J mice that received the Western diet for 6 months (n=6).
The slides were coded, without the pathologist knowing the specific treatment group that the slides represented. The histology was graded according to a number of histologic features. The degree of fat was graded as to the approximate percentage of hepatocytes containing fat: 0, absent; +/−, less than 5%; 1+, 5-25%; 2+. 26-50%; 3+, 51-75%; 4+, >75%. The fat was also assessed as to whether it was totally macrovesicular, predominantly macrovesicular, totally microvesicular, predominantly microvesicular, or mixed macro- and microvesicular. In addition, the zone was assessed as to whether the fat was perivenular, periportal, diffuse, or focal. Inflammation was graded as absent, scanty (1 to 3 foci/slide), present (scattered, with 4 to 10 foci/slide), present + (scattered, >10 foci/slide but not numerous), and present ++ (numerous). The type of inflammation was graded as totally mononuclear, predominantly mononuclear, totally neutrophilic, predominantly neutrophilic, and mixed mononuclear-neutrophilic. The hydropic change of hepatocytes was graded as absent, mild, and moderate/severe, with the location noted as perivenular, focal or diffuse.

C57Bl/6J mice [2] = assay: Western diet model: fibrosis by Sirius red whole-section-scanning morphometric image analysis; details: summary statement
Protocol: as §1
Sirius red staining was performed by the Morphology core of the USC-UCLA Research Center for Alcoholic Liver and Pancreatic Diseases. α-Smooth muscle actin.
Tissue sections stained with Sirius red were scanned by a third-generation Automated Cellular Imaging System (ACIS III), a highly automated microscope-based digital imaging system (Carl Zeiss MicroImaging AIS Inc., Aliso Viejo Calif.). The color of the Sirius red staining in the digitized tissue sections was determined and applied to a pre-existing algorithm that provides the area of a target color in μm^2. The outline of each digitized tissue section was manually traced using the computer's mouse. Areas of large portal tracts and central veins were also outlined manually. The total area (μm^2) of each tissue section and of the total area of large portal tracts and central veins were determined by the image analysis system. The area of fibrosis was calculated as [total area stained by Sirius red minus perivascular staining] as a percentage of the size of the tissue section. This method has the advantage of scanning the entire section, rather than measuring fibrosis in randomly chosen fields.

C57Bl/6J mice [3] = assay: Western diet model: biochemical findings and liver and body weights; details: for GSH / TBARS: liver; for ALT / AST / Adiponectin / Cholesterol / Glucose / Insulin / Leptin / Triglycerides: serum
Protocol: SR141716 was a kind gift from Sanofi-Aventis, France. SR141716 was dissolved in water with 0.1% Tween and given daily by gavage for 10 weeks. D-4F is an 18-mer of D-amino acids (Ac-D-W-F-K-A-F-Y-D-K-V-A-E-K-F-K-E-A-F-NH2)^4 (SEQ ID NO: 1) that was commercially synthesized (A & A Laboratories, San Diego Calif.) with 80% purity. D-4F was dissolved in the drinking water at a concentration of 60 μg/ml water for a calculated dose corrected for drug purity of 125 μg D-4F/mouse/day.
The high fat diet used was the RD “Western diet” (Research Diets, D12079B), which contains 41% of calories from fat, 43% calories from carbohydrate, and 17% of calories from protein); this diet was designed to approximate the “typical” human diet of North America and Europe.
as §1
Serum aspartate amino transferase (AST) and alanine aminotransferase (ALT) were measured with the Infinity AST and ALT liquid assay reagent (Thermo Electron Corporation, Louisville Colo., cat #TR70121 and TR71121). Serum triglycerides and cholesterol were measured with the Infinity cholesterol assay reagent (Thermo Electron Corporation, Louisville Colo., cat #TR22321 and TR13315). Serum glucose was measured with the Glucose (HK) assay kit (Sigma, St. Louis, Mo., cat #GAHK-20). Serum insulin was measured with the Mercodia Ultrasensitive mouse insulin ELISA kit (ALPCO Diagnostics, Salem N.H., cat #10 1150-01). The homeostasis model assessment insulin resistance index (HOMA-IR) was calculated as [fasting glucose (mmol/liter)*fasting insulin (microunits/ml)]/22.5^17, 18. Serum leptin was measured with the TiterZyme EIA mouse leptin kit (Assay Designs Inc, Ann Arbor Mich., cat #900-019). Serum adiponectin was measured with the mouse adiponectin kit (Biovendor LLC, Candler N.C., cat #RD 293023100). Thiobarbituric acid reactive substance (TBARS) was measured as previously described^19, 20; in brief, liver was homogenized and diluted 1:1 in 10% ice cold trichloroacetic acid. 0.5 ml supernatant or of a standard solution of 1,1,3,3-tetraethoxypropane was mixed with 0.5 ml of 0.6% (w/v) 4,6-dihydroxy-2-thiopyrimidine. The solution was boiled for 30 min, cooled and centrifuged. Absorbance was measured at 532 nm with a Shimadzu TV-2101 PC spectrophotometer. To measure hepatic glutathione (GSH), liver was homogenized and diluted 1:1 in 10% ice cold trichloroacetic acid. GSH in the supernatant was measured according to the recycling assay of Tietze^21.

[4] = 7 months Western diet followed by 2.5 months Western diet + drug
[5] = 7 months Western diet followed by 2.5 months chow + drug

Q: What does the source list for `Cc1c(C(=O)NN2CCCCC2)nn(-c2ccc(Cl)cc2Cl)c1-c1ccc(Cl)cc1` [SR141716, reference compound]?
A: Fatty Change Degree of fat (C57Bl/6J mice [1]; [4]): 4 (2×) and 3 and 1; Fatty Change Type (predominant type) (C57Bl/6J mice [1]; [4]): Microvesicular; also recorded: Mixed; also recorded: Macrovesicular; Inflammatory Clusters (C57Bl/6J mice [1]; [4]): 1 and 2 (4×); Fatty Change Degree of fat (C57Bl/6J mice [1]; [5]): 3 (2×) and 2 and 1; Fatty Change Type (predominant type) (C57Bl/6J mice [1]; [5]): Microvesicular; Inflammatory Clusters (C57Bl/6J mice [1]; [5]): 2 (3×) and 1; steatohepatitis (summary) (C57Bl/6J mice [1]; summary statement): improved steatohepatitis; progression of fibrosis after onset of steatohepatitis (C57Bl/6J mice [2]): prevented progression of fibrosis; Body weight (C57Bl/6J mice [3]; [4]): 29.1 ± 2.0 g; HOMA-IR (C57Bl/6J mice [3]; [4]): 8.8 ± 3.6; Liver weight (C57Bl/6J mice [3]; [4]): 1.54 ± 0.1 g; Body weight (C57Bl/6J mice [3]; [5]): 30.2 ± 1.1 g; HOMA-IR (C57Bl/6J mice [3]; [5]): 6.1 ± 2.0; Liver weight (C57Bl/6J mice [3]; [5]): 1.39 ± 0.1 g; GSH (C57Bl/6J mice [3]; [4]): 68.7 ± 2.0 nmole/mg protein; TBARS (C57Bl/6J mice [3]; [4]): 17.1 ± 0.7 nmol/g tissue; GSH (C57Bl/6J mice [3]; [5]): 73.8 ± 2.2 nmole/mg protein; TBARS (C57Bl/6J mice [3]; [5]): 18.7 ± 1.09 nmol/g tissue; ALT (C57Bl/6J mice [3]; [4]): 54.8 ± 12.4 U/L; AST (C57Bl/6J mice [3]; [4]): 109.6 ± 10.4 U/L; Adiponectin (C57Bl/6J mice [3]; [4]): 18.4 ± 1.8 µg/mL; Cholesterol (C57Bl/6J mice [3]; [4]): 112.2 ± 13.7 mg/dL; Glucose (C57Bl/6J mice [3]; [4]): 136.3 ± 29.2 mg/dL; Insulin (C57Bl/6J mice [3]; [4]): 0.81 ± 0.15 ng/mL; Leptin (C57Bl/6J mice [3]; [4]): 2.36 ± 1.05 ng/mL; Triglycerides (C57Bl/6J mice [3]; [4]): 33.1 ± 2.2 mg/dL; ALT (C57Bl/6J mice [3]; [5]): 59.1 ± 11.4 U/L; AST (C57Bl/6J mice [3]; [5]): 69.1 ± 5.5 U/L; Adiponectin (C57Bl/6J mice [3]; [5]): 16.5 ± 2.0 µg/mL; Cholesterol (C57Bl/6J mice [3]; [5]): 105.3 ± 4.7 mg/dL; Glucose (C57Bl/6J mice [3]; [5]): 96.2 ± 3.0 mg/dL; Insulin (C57Bl/6J mice [3]; [5]): 0.89 ± 0.27 ng/mL; Leptin (C57Bl/6J mice [3]; [5]): 1.95 ± 0.72 ng/mL; Triglycerides (C57Bl/6J mice [3]; [5]): 47.0 ± 2.2 mg/dL; body weight (summary) (C57Bl/6J mice [3]; summary statement): promoted weight loss; insulin resistance (summary) (C57Bl/6J mice [3]; summary statement): decreased insulin resistance; leptin levels (summary) (C57Bl/6J mice [3]; summary statement): decreased leptin levels
